Laboratory results reported in patent US11819492B2, “Natural product derivatives for inhibiting cellular necroptosis, ferroptosis and oxytosis” (Institut National de la Sante et de la Recherche Medicale …, priority 2016, dated 2023).

Columns and labels:
[1] = system: rat embryonic myoblastic H9C2 cells; test: H2O2-induced necrosis, LDH release assay; format: cell-based; details: 10 μM, 2 hours pretreatment, 800 μM H2O2 for 24 hours, FIG. 17
Experimental: The rat embryonic myoblastic H9C2 cells were cultured at 10,000 cells/well in 96-well-plates for 24 hours at 37° C./5% CO2. […] LB corresponds to cells treated with a lysis buffer (100% of cell death). Cell cytotoxicity was determined by a colorimetric assay quantitatively measuring lactate dehydrogenase (LDH) released […].

[2] = system: Porcine LLC-PK1 cells (kidney proximal tubule cell line); test: Cold-induced cell death (cold storage), MTS viability assay; format: cell-based; details: 24 hours at 4° C.
Experimental: At it was previously shown (Ahlenstiel et al. Transplantation […], 81(2), 231-239), cold storage induces a cell-death process. Porcine LLC-PK1 cells (kidney proximal tubule cell line) were stored at approximately 4° C. during 24 hours with or without the tested molecules. […] Cells were then incubated at 37° C., 5% CO2 before performing MTS viability assay. Cell viability was monitored using CellTiter 96® AQueous Non-Radioactive Cell Proliferation Assay (Promega, Fitchburg, WI, USA), based on the water-soluble tetrazolium compound MTS (3-[4,5-dimethylthiazol-2-yl]-5-[3-carboxymethoxy-phenyl]-2-[4-sulfophenyl]-2H-tetrazolium, inner salt) according to the manufacturers instructions.

COc1cc(O)c2c(c1)OC(O)(c1ccc(OCc3ccccc3)cc1)CC2=O (stereo not drawn) [compound 1]
protection from death induced by H2O2 (LDH release) [1]: protects from death induced by H2O2
protection from death induced by cold storage ([2]; 0.01-50.00 μM, FIGS. 16a, 16b): protects cells from death induced by cold storage
concentration of maximal activity against cold-induced cell death [2]: 504
